# Assay results as given in ChEMBL document CHEMBL3507680, “University of Dundee, Gates Library screen for HepG2 cell viability”.
# Experiment: Human HepG2 cell viability assay in 384 well format
# Assay type: toxicity, cell-based
# Set-up: dose 125 nL, time 70.5 hour; concentration not given beside the values
# Settings: HepG2 cells, read-out: Inhibition
compound,measurement,value
Cc1ccc(-c2cn[nH]c2C2CCCN(c3ccnc(C)n3)C2)cc1 (configuration not stated),cytotoxicity at 70.5 h,-1.31%
CCCc1nc(C)cc(N2CCC3(CCC(=O)N(CCOC)C3)CC2)n1,cytotoxicity at 70.5 h,-9.62%
CC(C)OCCCNC(=O)CN(c1ccc(F)c(F)c1)S(C)(=O)=O,cytotoxicity at 70.5 h,-6.87%
COc1ccc(CCNC2CCCN(Cc3noc(C)n3)C2)cc1 (configuration not stated),cytotoxicity at 70.5 h,-14%
O=C1CC(c2ccc(C(=O)O)cc2)c2ncn(-c3ccc(F)cc3)c2N1 (configuration not stated),cytotoxicity at 70.5 h,-4.89%
O=C1CCCN1Cc1ncn2c1CN(C(=O)Cc1ccccc1)CCC2,cytotoxicity at 70.5 h,0.61%
CN(Cc1ccco1)[C@@H]1CN(C(=O)C2CCOCC2)C[C@@H]2CCCO[C@@H]21,cytotoxicity at 70.5 h,0.92%
CSc1ccccc1NC(=O)C1CSc2ncc(C)c(=O)n2C1 (configuration not stated),cytotoxicity at 70.5 h,-10.7%
Cc1ccc(C(=O)N2CCC(Oc3ccc(F)cc3F)CC2)c(=O)[nH]1,cytotoxicity at 70.5 h,31.6%
CO[C@@H]1CCN(c2ncccn2)[C@H]1Cc1ccccc1,cytotoxicity at 70.5 h,1.42%
Cc1cc(NCCc2c[nH]cn2)nc(-c2cccnc2)n1,cytotoxicity at 70.5 h,-6.06%
CC(C)(N)C(=O)N1CCCC1c1cncc(Oc2ccccc2)n1 (configuration not stated),cytotoxicity at 70.5 h,2.03%
COCCNC(=O)NCc1cc(-c2ccncc2)n(C2CCCC2)n1,cytotoxicity at 70.5 h,-13.6%
CC(NC(=O)NCC(C)(C)O)c1ccc(-c2ccncc2)cc1 (configuration not stated),cytotoxicity at 70.5 h,-1.45%
Cc1ncccc1NC(=O)[C@H]1C[C@@H]2CCN(Cc3ccsc3)C[C@H]2O1,cytotoxicity at 70.5 h,-13.8%
CCOc1ccc(C2C3=C(O)OCC3=Nc3nc(SC)nc(N)c32)cc1 (configuration not stated),cytotoxicity at 70.5 h,9.83%
CN1Cc2cc(F)ccc2N(CC(O)C(F)(F)F)CCC1=O (configuration not stated),cytotoxicity at 70.5 h,11.8%
CN(C)C(=O)c1ccc2c(c1)N(C)C(CC(=O)NC(C)(C)CO)CO2 (configuration not stated),cytotoxicity at 70.5 h,18.8%
Cc1n[nH]c(NC(=O)c2ccc(COCC(F)(F)F)cc2)c1C,cytotoxicity at 70.5 h,-10.3%
Cc1nc(N[C@H]2COC[C@@H]2N2CCCC2)c2cnn(C)c2n1,cytotoxicity at 70.5 h,-8.31%
CCOC1CCN(C(=O)CN(C)c2cnccn2)CC1,cytotoxicity at 70.5 h,-4.29%
NC(=O)C1CCCN1C(=O)c1cc(C2CC2)nc2ccc(F)cc12 (configuration not stated),cytotoxicity at 70.5 h,18.9%
COc1ccc(OC)c(CN2CCC(c3cc(O)nc(C)n3)C2)c1 (configuration not stated),cytotoxicity at 70.5 h,22.5%
CC(=O)N1CCCCC1c1cc(CO)[nH]n1 (configuration not stated),cytotoxicity at 70.5 h,-18.5%
CCc1nnc2n1CCN(CCS(=O)(=O)c1ccccc1)C2,cytotoxicity at 70.5 h,-11.4%
Cc1cc(=O)[nH]c(SC(C)C(=O)N2CCC(NS(C)(=O)=O)CC2)n1 (configuration not stated),cytotoxicity at 70.5 h,2.17%
O=C(Cn1nc(N2CCOCC2)ccc1=O)Nc1nccs1,cytotoxicity at 70.5 h,15%
CC(Cn1ccnc1)NC(=O)N(C)Cc1ccc2c(c1)OCO2 (configuration not stated),cytotoxicity at 70.5 h,1.49%
Cc1csc(N2CCCN(C(=O)c3c(C)noc3C)CC2)n1,cytotoxicity at 70.5 h,-8.3%
COc1ccc(Cn2cc(C(C)O)nn2)cc1 (configuration not stated),cytotoxicity at 70.5 h,20.2%
COc1ccc(CN2CCCCC2Cn2nc(C)nc2C)cc1F (configuration not stated),cytotoxicity at 70.5 h,-1.41%
CC1CCN(C(=O)CSCCN2CCOCC2)CC1,cytotoxicity at 70.5 h,4.07%
CC(C(=O)N1CCOCC1)n1cncn1 (configuration not stated),cytotoxicity at 70.5 h,-4.26%
Cc1ccc(CNS(=O)(=O)CCCC#N)cc1F,cytotoxicity at 70.5 h,-4.22%
COc1coc(CN2CCCC3(CCC(=O)N(C4CC4)C3)C2)cc1=O (configuration not stated),cytotoxicity at 70.5 h,-12.4%
Cc1csc(CNc2cnn(C(C)C)c2)n1,cytotoxicity at 70.5 h,3.67%
CCc1c(C(=O)O)nnn1-c1cc(C)cc(C)c1,cytotoxicity at 70.5 h,-18.5%
CCc1ccc2nc(C)cc(C(=O)NC3CCC(=O)N(C)C3)c2c1 (configuration not stated),cytotoxicity at 70.5 h,-4.56%
CCC(CC)CNC(=O)N(C)C(C)c1ccccn1 (configuration not stated),cytotoxicity at 70.5 h,12.3%
COc1cccc2ccn(CCC(=O)N3CCCC(C(=O)O)C3)c12 (configuration not stated),cytotoxicity at 70.5 h,-22.2%
O=C(C[C@@H]1COC[C@H]2CN(C3CCCC3)C[C@@H]12)N1CCCCO1,cytotoxicity at 70.5 h,-0.83%
Cc1c(C(=O)NC2CCCOc3cc(Cl)ccc32)cnn1C (configuration not stated),cytotoxicity at 70.5 h,-15.2%
CCn1c(CN(C)C)nnc1C1CCN(Cc2ccc(Cl)cc2F)CC1,cytotoxicity at 70.5 h,-0.622%
Nc1cc(-c2c[nH]nc2C2CCCN2CCCc2ccccc2)ccn1 (configuration not stated),cytotoxicity at 70.5 h,-1.57%
CN(Cc1cccc(O)c1)C(=O)Nc1cccnc1N1CCCC1,cytotoxicity at 70.5 h,16.2%
Cc1cc(C)c(CNC(=O)NCCNc2ncccn2)c(=O)[nH]1,cytotoxicity at 70.5 h,-12.7%
O=C1NCC2(CCCN(C(=O)CCn3cnc4ccccc43)CC2)O1 (configuration not stated),cytotoxicity at 70.5 h,-1.01%
O=C(c1cnc(O)cn1)N1C[C@@H]2CC[C@H](C1)N(Cc1ccccc1)C2,cytotoxicity at 70.5 h,-0.665%
COc1ncccc1CN1C[C@@H]2CN(c3ncccn3)C[C@@H]2C1,cytotoxicity at 70.5 h,18.1%
CCCOC(=O)N1CCC(c2nnc(Cn3cccn3)n2C2CC2)CC1,cytotoxicity at 70.5 h,4.42%
NCCO[C@H]1C[C@@H](O)C12CCN(C(=O)CCOc1ccccc1)CC2,cytotoxicity at 70.5 h,-0.434%
CN(C)CCn1c2c(ccc1=O)CC(NC(=O)c1ccsc1)CC2 (configuration not stated),cytotoxicity at 70.5 h,11.3%
Cn1cc(CN2CCOC(c3nccnc3-c3cccc(F)c3)C2)cn1 (configuration not stated),cytotoxicity at 70.5 h,21.8%
Cc1noc(C)c1CN(C)C(=O)c1ccc2c(c1O)OC(C)(C)C2,cytotoxicity at 70.5 h,1.38%
C[C@@H](NC(=O)c1cnccn1)c1c(-c2ccc(Cl)cc2)noc1C(=O)O,cytotoxicity at 70.5 h,-5.53%
Cc1noc(C)c1CN1CCC2(CC1)C(c1cnn(C)c1)CC(=O)N2C (configuration not stated),cytotoxicity at 70.5 h,-7.83%
CCOC(=O)N1CCN(c2nc(NCCCO)c3ccccc3n2)CC1,cytotoxicity at 70.5 h,-21.9%
